# From patent US8575145B2, “Triazolopyridine compounds as PIM kinase inhibitors” (Array BioPharma Inc., priority 2008, dated 2013)
# Structures can show the parent of a compound that is named as a salt. Where two headings read alike, the source gives them in different places.
# Tests used:
# [1] = target: GST-tagged recombinant full-length human PIM-2 (Homo sapiens (Human), UniProt Q9P1W9); assay: PIM-2 Enzyme Assay; settings: read-out: PIM-2 IC50; 4 μM ATP, […] PIM-2
# Experimental: (§4) The amount of radiolabeled product is then measured by liquid scintillation counting. The final buffer conditions were as follows: 20 mM K^+MOPS, pH 7.4, 10 mM MgCl2, 0.005% Tween-20, 1 mM DTT. […] Incubations were carried out for 60 min at 22° C. and quenched with 75 μL of 200 mM H3PO4, filtered through a Whatman P81 plate and washed (1×200 μL and 5×100 μL ) with 200 mM H3PO4. Liquid scintillation cocktail (50 μL ) was then added per well, and the plate was counted for 30 s/well using a TopCount NXT.
# (§5) One-μL aliquots of these were then transferred to the assay mixtures above to give a final concentration of DMSO of 2%. […] For each plate, percent of control (POC) values were calculated for each well. IC50's were estimated from the POC's using a standard 4-parameter logistic model. The IC50 is defined as the concentration of inhibitor at which the POC equals 50 for the fitted curve.
# recombinant rat PIM-3 = recombinant rat PIM-3 (Rattus norvegicus (Rat), UniProt O70444); assay: PIM-3 Enzyme Assay; settings: read-out: PIM-3 IC50; 30 μM ATP, 0.5 nM PIM-3
# Experimental: as §4, §5
# [2] = tested on: MV4-11 (Acute myelogenous leukemia); assay: Cellular Proliferation Assay, cell line C; format: cell-based; settings: Homo sapiens; MV4-11, 72 hours, CelltiterBlue; read-out: Cell Line C antiproliferative IC50
# Experimental: (§1) The assay for determination of the antiproliferative activity of multiple Pim inhibitors in the JAK2-driven cell lines was conducted as follows. Cells were plated out to 96-well plates at an initial density of 10,000 cells/well in 95 pt. Compounds were prepared at […] in DMSO by conducting 3-fold serial dilutions to give a 10-point dosing curve having a high dose of 1000 μM. Aliquots (5 μt) of these dilutions were then transferred to the appropriate wells of the 96-well plates containing cells to yield a final DMSO concentration of 0.5%. The cells were then incubated with compound for 72 hours at 37° C., 5% CO2. CelltiterBlue reagent (Promega, Catalog #: G8080) was then added (20 μL/well) and incubated at 37° C., 5% CO2 for 1-8 hours depending on the cell line being analyzed. The plate was then quantified employing a fluorescence plate reader (Model: Gemini [Molecular Devices]; Settings: 560 nm (Ex)/590 nm (Em) 570 nm (cut-off) [CellTiter Blue Assay].
# The values for each well were then converted to a percent of untreated control (POC). These POC values were then plotted as a function of compound concentration. A 4-parameter curve-fit analysis was performed for each compound dilution and an IC50 value was calculated from this curve. […]
# CD4+ T cells = assay: T Cell in vitro Functional Assay (B): IL-2 production; format: cell-based; settings: Mus musculus, anti-CD3/anti-CD28, 40 hours, ELISA
# Experimental: The in vitro assays to assess the effects of the compounds of Examples 16, 18 and 26 on T cells were conducted as described in assays A, B, C and D below. CD4+ T cells were isolated from red blood cell-depleted splenocytes of C57B1/6J mice (Jackson Laboratories, catalog #000664) using CD4+ T cell isolation kit (Miltenyi, catalog #130-090-860).
# In assay (A), purified CD4+ T cells were plated in 96 well plates at 90000 cells/well in 90 μL. A dilution series of the compounds of Examples 16, 18 and 26 were prepared at 100× the final concentration in DMSO and then diluted 10-fold into complete media (10× stocks). 10 μL of 10×compound stocks were added to appropriate wells of 96 well plates containing cells and incubated for 1 hour at 37° C., 5% CO2. The cell/compound mixtures were then transferred to a 96 well plate coated with anti-CD3 mAb (1 μg/mL; BD Pharmingen, catalog #553057) and soluble anti-CD28 mAb (1 μg/mL; BD Pharmingen, catalog #553294) was added. Plates were cultured at 37° C., 5% CO2 for 40 hours. 20 μL of the culture were removed for determination of proliferation using the CellTitre-Glo™ luminescent assay (Promega, Catalog #G7571) according to the manufacturer's protocol. The plate was quantified on a Packard TopCount instrument using luminescence protocol and data was analyzed using Prism software.
# In assay (B), purified CD4+ cells were treated with compound and stimulated as described for assay (A). After 40 hours, supernatants were assayed for IL-2 using R&D duo set ELISA kits (catalog #DY402). ELISA plates were quantified relative to a standard curve using Molecular Devices Versamax Reader at […] and Softmax Pro software.
# For each of assays A, B, C and D, the values for each well were converted to a percent of vehicle-treated (DMSO) control (POC). These POC values were plotted as a function of compound concentration and an IC50 calculated using a 4-parameter curve-fit analysis program.
# PIM-1 = PIM-1 (Homo sapiens (Human), UniProt P11309); assay: PIM-1 Enzyme Assay; format: biochemical
# PIM-1, sequence (P11309 whole entry, species assumed): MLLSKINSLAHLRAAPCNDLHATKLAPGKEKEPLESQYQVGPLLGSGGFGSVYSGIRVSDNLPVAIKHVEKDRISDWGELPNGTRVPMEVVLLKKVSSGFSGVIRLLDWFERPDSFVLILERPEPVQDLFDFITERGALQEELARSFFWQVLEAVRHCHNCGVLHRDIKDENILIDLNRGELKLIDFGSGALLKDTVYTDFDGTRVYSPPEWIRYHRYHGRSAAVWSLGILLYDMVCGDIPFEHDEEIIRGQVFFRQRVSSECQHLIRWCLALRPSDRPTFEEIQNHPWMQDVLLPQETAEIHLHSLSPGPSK
# Method in brief: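 Radiometric kinase assay in 20 mM K+MOPS pH 7.4, 10 mM MgCl2, 0.005% Tween-20, 1 mM DTT, 2% DMSO final; 60 min at 22° C, stopped with H3PO4, product captured on P81 filter and counted by scintillation. IC50 from 4-parameter logistic fit of percent of control.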
# [3] = tested on: BaF3 TEL-JAK2 (Mouse pro-B-cell transformed with TEL-JAK2 fusion); assay: Cellular Proliferation Assay, cell line G; format: cell-based; settings: BaF3 TEL-JAK2, 72 hours, CelltiterBlue, read-out: Cell Line G antiproliferative IC50
# Experimental: as §1
# (§2) The values for each well were then converted to a percent of untreated control (POC). These POC values were then plotted as a function of compound concentration. A 4-parameter curve-fit analysis was performed for each compound dilution and an IC50 value was calculated from this curve.
# (§3) Cell lines • A: PC3 (Androgen independent prostate cancer) • B: K562 (Ph+chronic myelogenous leukemia) • C: MV4-11 (Acute myelogenous leukemia) • D: BxPC3 (Pancreatic Cancer) • E: HepG2 (Hepatocellular Carcinoma) • F: BaF3 (Mouse pro-B-cell line) • G: BaF3 TEL-JAK2 (Mouse pro-B-cell transformed with TEL-JAK2 fusion) • H: BaF2 BCR-Ab1 (Mouse pro-B-cell transformed with BCR-Ab1 fusion)
# [4] = tested on: BxPC3 (Pancreatic Cancer); assay: Cellular Proliferation Assay, cell line D; format: cell-based; settings: Homo sapiens, BXPC-3; BxPC3, 72 hours, CelltiterBlue; read-out: Cell Line D antiproliferative IC50
# Experimental: as §1, §2, §3
# [5] = tested on: HepG2 (Hepatocellular Carcinoma); assay: Cellular Proliferation Assay, cell line E; format: cell-based; settings: Homo sapiens; HepG2, 72 hours, CelltiterBlue; read-out: Cell Line E antiproliferative IC50
# Experimental: as §1, §2, §3
# GST-tagged recombinant full-length human PIM-2, sequence (Q9P1W9 whole entry): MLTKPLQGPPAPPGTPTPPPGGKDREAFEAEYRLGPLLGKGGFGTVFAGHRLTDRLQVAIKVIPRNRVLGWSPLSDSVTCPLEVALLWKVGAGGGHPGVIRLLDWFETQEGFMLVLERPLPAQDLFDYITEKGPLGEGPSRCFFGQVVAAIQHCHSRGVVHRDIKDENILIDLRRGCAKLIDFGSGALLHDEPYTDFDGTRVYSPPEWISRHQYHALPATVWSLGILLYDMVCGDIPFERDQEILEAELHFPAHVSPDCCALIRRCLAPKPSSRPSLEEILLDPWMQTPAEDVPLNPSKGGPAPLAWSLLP
IC50 [1] [nM],IC50 (recombinant rat PIM-3) [nM],IC50 (CD4+ T cells) [nM],IC50 [3] [nM],IC50 [4] [nM],"IC50 (PIM-1; 35 μM ATP, 0.25 nM PIM-1) [nM]",IC50 [5] [nM],Structure (SMILES),IC50 [2] [nM],IC50 (PIM-1) [nM]
169,4,≤ 1000,< 2000,> 10000,1,> 10000,"c1cc(OCC2CCCNC2)c2nc(-c3nnc4ccccn34)ccc2c1 (centres unmarked) [Example 16, 2-([1,2,4]Triazolo[4,3-a]pyridin-3-yl)-8-(piperidin-3-ylmethoxy)quinoline]",,
49,2,≤ 1000,< 2000,< 10000,,< 10000,"CC(C)(CN)COc1cccc2ccc(-c3nnc4ccccn34)nc12 [Example 18, 3-(2-([1,2,4]Triazolo[4,3-a]pyridin-3-yl)quinolin-8-yloxy)-2,2-dimethylpropan-1-amine]",< 2000,

Structure (SMILES),IC50 [1] [nM],IC50 (recombinant rat PIM-3) [nM],IC50 (CD4+ T cells) [nM],IC50 [3] [nM],IC50 [4] [nM],"IC50 (PIM-1; 35 μM ATP, 0.25 nM PIM-1) [nM]",IC50 [5] [nM],IC50 [2] [nM],IC50 (PIM-1) [nM]
"F[C@@H]1CNCCC1Oc1cccc2ccc(-c3nnc4ccccn34)nc12 (stereo in doubt) [Example 26, 2-([1,2,4]triazolo[4,3-a]pyridin-3-yl)-8-((cis)-3-fluoropiperidin-4-yloxy)quinoline dihydrochloride]",137,9,≤ 5000,< 2000,,,,< 2000,3
